Laboratory results reported in patent US20230398130A1, “METHODS AND COMPOSITIONS FOR DIFFERENTIATING STEM CELLS” (Massachusetts Institute of Technology, priority 2020, published 2023).

Key:
ISC-enriched organoids [1] = assay: Primary screen, 384-well 2.5-D organoid differentiation (ENR+CD, 6 days): basal lysozyme secretion (LYZ.NS); type: cell-based, murine; settings: for Dose.FC.LYZ.NS: FC vs plate median; for SSMD.LYZ.NS: strictly standardized mean difference
Text: (§1) High-throughput screening.

ISC-enriched organoids [2] = assay: Primary screen, 384-well 2.5-D organoid differentiation (ENR+CD, 6 days): carbachol-induced lysozyme secretion (LYZ.S); type: cell-based, murine; settings: primary screen; for Dose.FC.LYZ.S: FC vs plate median; for Z.LYZ.S: standard z score; for SSMD.LYZ.S: strictly standardized mean difference
Text: as §1

ISC-enriched organoids [3] = assay: Primary screen, 384-well 2.5-D organoid differentiation (ENR+CD, 6 days, Target Selective Inhibitor Library, vs whole-plate median): ATP (CellTiter-Glo 3D, CTG); settings: for Dose.FC.CTG: FC vs plate median; for SSMD.CTG: strictly standardized mean difference
[4] = Dose 0.08 uM, primary screen, standard z score
[5] = Dose 0.40 uM, primary screen, standard z score
[6] = Dose 2.00 uM, primary screen, standard z score
[7] = Dose 10.00 uM, primary screen, standard z score
[8] = primary screen, 1st of the 4 dose lines of the treatment (dose not given)
[9] = primary screen, 2nd of the 4 dose lines of the treatment (dose not given)
[10] = primary screen, 3rd of the 4 dose lines of the treatment (dose not given)
[11] = primary screen, 4th of the 4 dose lines of the treatment (dose not given)
[12] = 1st of the 4 dose lines of the treatment (dose not given)
[13] = 2nd of the 4 dose lines of the treatment (dose not given)
[14] = 3rd of the 4 dose lines of the treatment (dose not given)
[15] = 4th of the 4 dose lines of the treatment (dose not given)
[16] = Dose 0.08 uM, standard z score of FC
[17] = Dose 0.40 uM, standard z score of FC
[18] = Dose 2.00 uM, standard z score of FC
[19] = Dose 10.00 uM, standard z score of FC

Substance | Dose.FC.LYZ.NS (ISC-enriched organoids [1]; Dose 0.08 uM, primary screen) | Z.LYZ.NS (ISC-enriched organoids [1]; [4]) | Dose.FC.LYZ.NS (ISC-enriched organoids [1]; Dose 0.40 uM, primary screen) | Z.LYZ.NS (ISC-enriched organoids [1]; [5]) | Dose.FC.LYZ.NS (ISC-enriched organoids [1]; Dose 2.00 uM, primary screen) | Z.LYZ.NS (ISC-enriched organoids [1]; [6]) | Dose.FC.LYZ.NS (ISC-enriched organoids [1]; Dose 10.00 uM, primary screen) | Z.LYZ.NS (ISC-enriched organoids [1]; [7]) | SSMD.LYZ.NS (ISC-enriched organoids [1]; [8]) | SSMD.LYZ.NS (ISC-enriched organoids [1]; [9]) | SSMD.LYZ.NS (ISC-enriched organoids [1]; [10]) | SSMD.LYZ.NS (ISC-enriched organoids [1]; [11]) | Dose.FC.LYZ.S (ISC-enriched organoids [2]; Dose 0.08 uM) | Dose.FC.LYZ.S (ISC-enriched organoids [2]; Dose 0.40 uM) | Dose.FC.LYZ.S (ISC-enriched organoids [2]; Dose 2.00 uM) | Dose.FC.LYZ.S (ISC-enriched organoids [2]; Dose 10.00 uM) | Dose.FC.CTG (ISC-enriched organoids [3]; Dose 0.08 uM, primary screen) | Dose.FC.CTG (ISC-enriched organoids [3]; Dose 0.40 uM, primary screen) | Dose.FC.CTG (ISC-enriched organoids [3]; Dose 2.00 uM, primary screen) | Dose.FC.CTG (ISC-enriched organoids [3]; Dose 10.00 uM, primary screen) | also measured
KX2-391 | −0.283 log 2 fold change | −2.468 | −0.292 log 2 fold change | −2.546 | −0.251 log 2 fold change | −2.188 | −0.286 log 2 fold change | −2.494 | −2.177 | −1.855 | −1.701 | −2.061 | −0.396 log 2 fold change | −0.380 log 2 fold change | −0.424 log 2 fold change | −0.419 log 2 fold change | −0.752 log 2 fold change | −1.251 log 2 fold change | −1.983 log 2 fold change | −1.414 log 2 fold change | Z.LYZ.S (ISC-enriched organoids [2]; [12]): −2.561; Z.LYZ.S (ISC-enriched organoids [2]; [13]): −2.455; Z.LYZ.S (ISC-enriched organoids [2]; [14]): −2.741; Z.LYZ.S (ISC-enriched organoids [2]; [15]): −2.709; SSMD.LYZ.S (ISC-enriched organoids [2]; [12]): −2.252; SSMD.LYZ.S (ISC-enriched organoids [2]; [13]): −1.641; SSMD.LYZ.S (ISC-enriched organoids [2]; [14]): −1.898; SSMD.LYZ.S (ISC-enriched organoids [2]; [15]): −2.140; Z.CTG (ISC-enriched organoids [3]; [4]): −1.796; Z.CTG (ISC-enriched organoids [3]; [5]): −2.989; Z.CTG (ISC-enriched organoids [3]; [6]): −4.737; Z.CTG (ISC-enriched organoids [3]; [7]): −3.377; SSMD.CTG (ISC-enriched organoids [3]; [8]): −2.473; SSMD.CTG (ISC-enriched organoids [3]; [9]): −2.845; SSMD.CTG (ISC-enriched organoids [3]; [10]): −2.822; SSMD.CTG (ISC-enriched organoids [3]; [11]): −1.255
Maraviroc | 0.047 log 2 fold change | 0.411 | 0.041 log 2 fold change | 0.358 | 0.031 log 2 fold change | 0.269 | 0.087 log 2 fold change | 0.759 | 0.274 | 0.365 | 0.225 | 0.547 | 0.054 log 2 fold change | 0.195 log 2 fold change | 0.005 log 2 fold change | 0.077 log 2 fold change | −0.084 log 2 fold change | 0.079 log 2 fold change | −0.009 log 2 fold change | 0.139 log 2 fold change | Z.LYZ.S (ISC-enriched organoids [2]; [12]): 0.350; Z.LYZ.S (ISC-enriched organoids [2]; [13]): 1.262; Z.LYZ.S (ISC-enriched organoids [2]; [14]): 0.034; Z.LYZ.S (ISC-enriched organoids [2]; [15]): 0.495; SSMD.LYZ.S (ISC-enriched organoids [2]; [12]): 0.262; SSMD.LYZ.S (ISC-enriched organoids [2]; [13]): 0.754; SSMD.LYZ.S (ISC-enriched organoids [2]; [14]): 0.028; SSMD.LYZ.S (ISC-enriched organoids [2]; [15]): 0.400; Z.CTG (ISC-enriched organoids [3]; [4]): −0.201; Z.CTG (ISC-enriched organoids [3]; [5]): 0.188; Z.CTG (ISC-enriched organoids [3]; [6]): −0.022; Z.CTG (ISC-enriched organoids [3]; [7]): 0.331; SSMD.CTG (ISC-enriched organoids [3]; [8]): −0.294; SSMD.CTG (ISC-enriched organoids [3]; [9]): 0.187; SSMD.CTG (ISC-enriched organoids [3]; [10]): −0.030; SSMD.CTG (ISC-enriched organoids [3]; [11]): 0.270
OG-L002 | 0.000 log 2 fold change | – | −0.011 log 2 fold change | – | 0.021 log 2 fold change | – | −0.091 log 2 fold change | – | – | – | – | – | 0.023 log 2 fold change | 0.026 log 2 fold change | −0.001 log 2 fold change | −0.084 log 2 fold change | 0.094 log 2 fold change | 0.138 log 2 fold change | 0.128 log 2 fold change | 0.094 log 2 fold change | Z.LYZ.NS (ISC-enriched organoids [1]; [16]): −0.001; Z.LYZ.NS (ISC-enriched organoids [1]; [17]): −0.097; Z.LYZ.NS (ISC-enriched organoids [1]; [18]): 0.182; Z.LYZ.NS (ISC-enriched organoids [1]; [19]): −0.790; Z.CTG (ISC-enriched organoids [3]; [16]): 0.225; Z.CTG (ISC-enriched organoids [3]; [17]): 0.329; Z.CTG (ISC-enriched organoids [3]; [18]): 0.306; Z.CTG (ISC-enriched organoids [3]; [19]): 0.225
